The subject of series [1] is women in their twenties suffering from poor sleep. Nature of the series: Sleep monitoring with cedrol vaporized in the room from bedtime until waking (Example 3). The series is classed as in vivo, human. To be noted: significance 5%. The method, then: The subjects were ten women in their twenties suffering from poor sleep. ECG (chest V5 lead), brain waves (C3, O1 in the international 10–20 method), respiration (impedance method: abdomen and chest), superficial electromyogram (bipolar lead of left and right mentalis muscles), and ocular movement (bipolar lead without horizontally linking left and right eye-sockets) were monitored from the time the subjects went to bed until they woke in a 40 m^2 room. The cedrol was administered by placing Petri dishes filled with cedrol on 95° C. hot plates so that approximately 100 mg was vaporized per hour (about 1 ppb/hr), from the time subjects went to bed until they woke. Measurements were taken for 7 days. No administration took place on the first two days, in order to allow subjects to become acclimated to the measuring instruments and environment (control). On the third day, administration was managed without anything placed on the hot plates (placebo). After 3 days, cedrol was administered on the 7th day.
The subjects were interviewed about their condition on waking using a questionnaire based on POMS (profile of mood states) to assess mood. The changes in the parameters measured during the administration of cedrol and placebo treatment were compared.
Awakening and sleep stages were determined in accordance with international standards for determining sleep stages (Sleep Brain Wave Atlas, pp. 3–9, Ishiyaku Shuppan KK, published September, 1971, the relevant portions thereof which describe sleep analysis and standards are incorporated herein by reference). Frequency analysis of R—R interval fluctuations and statistical analysis of the measurement results were done in the same manner as in Example 1.

A short description of series [2]: Vapor pressure of purified cedrol by static method and gas flow method. The series is classed as physicochemical. The note with it: ambient temperature (unheated). The method, then:
The vapor pressure of purified cedrol (molecular weight 222 g·mol^−1) used in the following examples was determined by a static method and a gas flow method (temperature: 22, 50, and 75° C. for solids; 100 and 125° C. for liquids).
In the static method, samples were taken from hermetically sealed containers, a constant temperature was established, and the equilibrium vapor pressure at that temperature was directly measured using a pressure gauge (OECD Test Guidelines 104: Static Measurement of Vapor Pressure).
In the gas flow method, carrier gas (nitrogen gas) was allowed to flow so as to come into contact with a solid or liquid sample at a certain temperature to saturate the sample vapor, and the vapor density (vaporization quantity/volume) was measured so as to determine the vapor pressure hypothetically in accordance with ideal gas principles. The vapor density herein referred to is calculated from the sample vaporization rate (rate of loss) determined using an electrical balance, and the carrier gas flow rate determined using a flow rate gauge. However, since the sample vapor saturation is usually incomplete, the vapor density level is dependent on flow rate, so the vapor density was measured at varying flow rates for extrapolation to a zero flow rate to determine the saturated vapor density. […]

Series [3] deals with women in their twenties complaining of fatigue (sympathetic overactivity). Nature of the series: Inhalation of cedrol for 30 seconds with ECG, blood pressure and respiration monitoring (Example 1). The series is classed as in vivo, human. To be noted: after vs before inhalation, 10 wt % in dipropylene glycol, significance 5%. As for the experimental part: The subjects were ten women in their twenties complaining of fatigue (sympathetic overactivity), who were asked to inhale, for 30 seconds, cedrol dissolved in dipropylene glycol (10 wt % concentration), while ECG at rest (chest V5 lead), blood pressure (tonometry), and respiration (pulmonary volume instantaneously measured by respiratory rate sensor) were monitored. The changes in parameters before and after measurement were compared. Frequency analysis of R—R interval fluctuations was performed for low frequency components integrating amplitudes 0.02 to 0.12 Hz (sum of low frequency: Lsum) and high frequency components integrating amplitudes 0.12 to 2.00 Hz (sum of high frequency: Hsum) using the rapid Fourier transform. As used here, the Hsum is an indicator of parasympathetic nervous activity, and the Lsum/Hsum is an indicator of sympathetic nervous activity.
The measurement results were statistically analyzed by Welch's t-test or Student's t-test based on the F test.

In series [4] the test system is insomniac women in their fifties. The series is described as follows: Sleep in a room with furnishings and bedding coated with cedrol, actigram assessment (Example 7). The class given is in vivo, human. The note with it: furnishings and bedding coated with cedrol 1.5 μg/cm^2, 15th to 21st days, vs control week; p<0.01. The method, then:
The subjects were twenty insomniac women in their fifties, while sleep was assessed from 3 hours before bed until wakening for 4 weeks in a room (sleeping room) at a temperature of 23° C. and a humidity of 50%. The first week served as a control. For the last 3 weeks, the test was conducted by replacing the curtains, wall paper, flooring, pillows, sheets, and bedding with those which had been coated with cedral (1.5 μg/cm^2).
The subjects ware actigrams for 4 continuous weeks on the opposite of their leading arm to allow assessment of the sleeping efficiency and intermittent awakening. Analyzed data for the cedrol coatings were from the 15th to 21st days following application.
Statistical analysis of the measurement results was the same as in Example 5.

Series [5] has as its system insomniac women in their twenties (parasympathetic predominance to excess). Nature of the series: Inhalation of cedrol for 30 seconds with ECG, blood pressure and respiration monitoring (Example 2). The class given is in vivo, human. The note with it: after vs before inhalation, insomniac subjects. The source says: The subjects were ten insomniac women in their twenties (under considerable pressure to get to sleep, with parasympathetic predominance to excess), who were asked to inhale, for 30 seconds, cedrol dissolved in dipropylene glycol (10 wt % concentration), while ECG at rest (chest V5 lead), blood pressure (tonometry), and respiration (pulmonary volume instantaneously measured by respiratory rate sensor), and skin blood flow of forehead (measured by laser Doppler methods) were monitored. The changes in parameters before and after measurement were compared. Frequency analysis of R—R interval fluctuations and statistical analysis of the measurement results were done in the same manner as in Example 1.

Setting [6] is: 7th day (cedrol) vs before administration and 3rd day (placebo treatment).
Where [7] appears, read: cedrol approximately 100 mg vaporized per hour vs placebo treatment.
[8] abbreviates: within physiologically normal range, significance 5%.

Take `C[C@@H]1CC[C@H]2C(C)(C)[C@H]3C[C@@]12CC[C@@]3(C)O` [cedrol]: in series [1] (setting [6]), the POMS fatigue entry is given as “meaningful (5%) improvement” and the POMS tension result was “meaningful (5%) improvement”. Besides, the “Hsum during non-REM sleep” value in series [1] (cedrol approximately 100 mg vaporized per hour (about 1 ppb/hr) vs placebo treatment) is “meaningfully increased”. Besides, in series [1] (setting [7]), the “cumulative incidence of stages 3 and 4 of sleep” value was “meaningfully greater”; the “respiratory rate (RR) during non-REM sleep” value was “meaningfully lower”. For the same compound, in series [2], the “vapor pressure (vaporizability)” value is recorded as “can be vaporized at ambient temperature”. Also, in series [3], the “ECG R-R interval” value is “meaningfully longer”, the “Hsum (parasympathetic nervous activity indicator)” value was “meaningfully greater”, the “Lsum/Hsum (sympathetic nervous activity indicator)” value is reported as “meaningfully lower” and the “diastolic blood pressure (DBP)” value is on record as “meaningfully lower”. In addition, in series [3], the “respiratory rate (RR)” value is reported as “meaningfully lower” and the “systolic blood pressure (SBP)” value is “meaningfully lower”. For the same compound, in series [4], the intermittent awakening entry is “meaningfully fewer” and the sleeping efficiency entry is listed as “meaningfully better”. Also, in series [5], the “ECG R-R interval” value is “no meaningful change”, the Hsum result is recorded as “tended to be lower”, the Lsum/Hsum entry was “tended to be higher” and the “respiratory rate (RR)” value is reported as “no meaningful difference”. Moreover, in series [5] (setting [8]), the “diastolic blood pressure (DBP)” value is reported as “meaningfully higher” and the “systolic blood pressure (SBP)” value is “meaningfully higher”.

For the origin of these results see patent US7125911B2, “Autonomic nerve regulating agent” (Kao Corporation, priority 2000, dated 2006).
